Assay results taken from US11776661B2, “Determination of MAPK-AP-1 pathway activity using unique combination of target genes” (InnoSIGN B.V., priority 2017, dated 2023).

Assays:
[1] = system: MAPK-AP-1 cellular signaling pathway; assay: MAPK-AP-1 pathway activity prediction (Bayesian network model, 24 target genes list) on GSE28878, HepG2 cell line; format: cell-based, human; conditions: HepG2, 500 nM TPA, 12 h, 24 h, 48 h, vs DMSO control vehicle
Method: A HepG2 cell line was treated with DMSO as control vehicle (group 1: 12 h, all 3 samples are part of the calibration data set; group 3: 24 h, 2 samples are part of the calibration data set; group 5: 48 h, 1 sample is part of the calibration data set) or 500 nM TPA (group 2: 12 h, 1 sample is part of the calibration data set; group 4: 24 h, all 3 samples are part of the calibration data set; group 6: 48 h). In the diagram, the vertical axis indicates the odds (on a log 2 scale) that the TF element is “present” resp. “absent”, which corresponds to the MAPK-AP-1 cellular signaling pathway being active resp. passive, wherein values above the horizontal axis correspond to the TF element being more likely “present”/active and values below the horizontal axis indicate that the odds that the TF element is “absent”/passive are larger than the odds that it is “present”/active.

[2] = system: MAPK-AP-1 cellular signaling pathway; assay: MAPK-AP-1 pathway activity prediction (24 target genes list) on GSE45417, U937 (histiocytic lymphoma) cell line; format: cell-based; conditions: U937, 100 nM TPA vs 0.1% DMSO
Method: The U937 (histiocytic lymphoma) cell line was treated with 0.1% DMSO as control vehicle (group 1: all 3 samples are part of the calibration data set; and group 3), or 100 nM TPA (group 2: all 3 samples are part of the calibration data set; and group 4). Additionally, ZXDC1 knockdown was induced using doxycycline (groups 3 and 4). In the diagram, the vertical axis indicates the odds (on a log 2 scale) that the TF element is “present” resp. “absent”, which corresponds to the MAPK-AP-1 cellular signaling pathway being active resp. passive, wherein values above the horizontal axis correspond to the TF element being more likely “present”/active and values below the horizontal axis indicate that the odds that the TF element is “absent”/passive are larger than the odds that it is “present”/active.

[3] = system: MAPK-AP-1 cellular signaling pathway; assay: MAPK-AP-1 pathway activity prediction (24 target genes list) on GSE66853, U937 cells; format: cell-based, human; conditions: 50 ng/ml TPA for 24 h, compared to Ethanol
Method: U937 cells were treated with Ethanol as control vehicle (group 1: all 3 samples are part of the calibration data set; and group 3) or 50 ng/ml TPA (group 2: 1 sample is part of the calibration data set; and group 4) for 24 h. U937 cells were either transduced with an empty vector (groups 1 and 2) or with an EVI1 expression vector (groups 3 and 4). In the diagram, the vertical axis indicates the odds (on a log 2 scale) that the TF element is “present” resp. “absent”, which corresponds to the MAPK-AP-1 cellular signaling pathway being active resp. passive, wherein values above the horizontal axis correspond to the TF element being more likely “present”/active and values below the horizontal axis indicate that the odds that the TF element is “absent”/passive are larger than the odds that it is “present”/active. […] Although it is known that the FOS and JUN promoter region contains EVI1 binding sites it seems that this effect on AP-1 activity is very small compared to the addition of 50 ng/ml TPA.

[4] = system: MAPK-AP-1 cellular signaling pathway; assay: MAPK-AP-1 pathway activity prediction (24 target genes list) on E-MEXP-2213, K562 (erythroleukemia) cells; format: cell-based; conditions: K562, 10 nM TPA vs not treated
Method: K562 (erythroleukemia) cells were either not treated (group 1) or treated with 10 nM TPA (group 2). In the diagram, the vertical axis indicates the odds (on a log 2 scale) that the TF element is “present” resp. “absent”, which corresponds to the MAPK-AP-1 cellular signaling pathway being active resp. passive, wherein values above the horizontal axis correspond to the TF element being more likely “present”/active and values below the horizontal axis indicate that the odds that the TF element is “absent”/passive are larger than the odds that it is “present”/active.

[5] = system: MAPK-AP-1 cellular signaling pathway; assay: MAPK-AP-1 pathway activity prediction (11 target gene shortlist) on GSE40117, hES-Hep cells; format: cell-based, Human; conditions: 0.11 μM TPA vs control conditions
Method: (§1) Human embryonic stem cell derived hepatocyte like cells (hES-Hep) were treated with 0.11 μM TPA (group 2: all 3 samples are part of the calibration data set) and compared to control conditions (group 1). HepG2 (a human liver cancer cell line) were treated with 0.0001 μM TPA (group 4: 3 samples are part of the calibration data set) and compared to control conditions (group 3: 1 sample is part of the calibration data set). In the diagram, the vertical axis indicates the odds (on a log 2 scale) that the TF element is “present” resp. “absent”, which corresponds to the MAPK-AP-1 cellular signaling pathway being active resp. passive, wherein values above the horizontal axis correspond to the TF element being more likely “present”/active and values below the horizontal axis indicate that the odds that the TF element is “absent”/passive are larger than the odds that it is “present”/active.

[6] = system: MAPK-AP-1 cellular signaling pathway; assay: MAPK-AP-1 pathway activity prediction (11 target gene shortlist) on GSE40117, HepG2; format: cell-based, human; conditions: HepG2, 0.0001 μM TPA vs control conditions
Method: as §1

[7] = system: MAPK-AP-1 cellular signaling pathway; assay: MAPK-AP-1 pathway activity prediction (11 target gene shortlist) on GSE58235, HepG2 (Human Hepatoma) cell line; format: cell-based; conditions: compared to DMSO and Ethanol
Method: The HepG2 (Human Hepatoma) cell line was treated with 0.5% DMSO (group 1: all 3 samples are part of the calibration data set; group 4: 1 sample is part of the calibration data set), 0.5% Ethanol (groups 2 and 5) or 500 nM TPA (group 3: all 3 samples are part of the calibration data set; and group 6) for 24 hours (groups 1 to 3) or 48 hours (groups 4 to 6). In the diagram, the vertical axis indicates the odds (on a log 2 scale) that the TF element is “present” resp. “absent”, which corresponds to the MAPK-AP-1 cellular signaling pathway being active resp. passive, wherein values above the horizontal axis correspond to the TF element being more likely “present”/active and values below the horizontal axis indicate that the odds that the TF element is “absent”/passive are larger than the odds that it is “present”/active.

[8] = system: MAPK-AP-1 cellular signaling pathway; assay: MAPK-AP-1 pathway activity prediction (11 target gene shortlist) on E-MEXP-2573, K562 (erythroleukemia) cells; format: cell-based; conditions: 100 nM TPA for a further 48 h
Method: RNA was extracted from K562 (erythroleukemia) cells after 24 h (groups 1 and 3) or cells were treated with 100 nM TPA for a further 48 h (groups 2 and 4). K562 were either transfected with a control empty vector (groups 1 and 2) or a BASP1-containing vector (groups 3 and 4). In the diagram, the vertical axis indicates the odds (on a log 2 scale) that the TF element is “present” resp. “absent”, which corresponds to the MAPK-AP-1 cellular signaling pathway being active resp. passive, wherein values above the horizontal axis correspond to the TF element being more likely “present”/active and values below the horizontal axis indicate that the odds that the TF element is “absent”/passive are larger than the odds that it is “present”/active.

Measured: AP-1 activity (log2 odds that TF element is present) after exposure

CCCCCCCCCCCCCC(=O)O[C@@H]1[C@@H](C)[C@@]2(O)[C@@H](C=C(CO)C[C@]3(O)C(=O)C(C)=C[C@@H]23)[C@@H]2C(C)(C)[C@]12OC(C)=O [TPA, 12-O-Tetradecanoylphorbol-13-acetate]
large increase: [1] | [2]; ZXDC1 knockdown induced using doxycycline | [2]; without ZXDC1 knockdown | [3]; U937 transduced with EVI1 expression vector | [3]; U937 transduced with empty vector | [4] | [5] | [6] | [7]; HepG2, 500 nM TPA for 24 hours | [7]; HepG2, 500 nM TPA for 48 hours | [8]; K562 transfected with BASP1-containing vector | [8]; K562 transfected with control empty vector
